These results are taken from US11993593B2, “Griseofulvin compound and pharmaceutical use thereof” (Daiichi Sankyo Company, Limited, priority 2017, dated 2024).

For the first experiment, the system named is Male ddY mice. The experiment is described as follows: Forced swim test. In kind it is in vivo. The settings on record: Mus musculus, oral, dose 10 mg/kg, 4 hours after administration, immobility time measured for six minutes, ratio to control group (0.5% methylcellulose). The method, then:
(Test Example) Forced Swim Test
Male ddY mice (4 weeks old at the time of evaluation) were used for the test in groups of 10 mice. The mice were placed in a water bath (inner diameter 14.5 cm, height 20 cm, water temperature about 24° C.) with water filled to a height of about 15 cm, and a swimming trial was carried out for 15 minutes (training trial). The next day, mice were orally administered with a suspension of each compound (10 mL/kg, solvent: 0.5% methylcellulose aqueous solution) was orally administered to the mice, and four hours later, they were placed in the water bath. Immobility time (sec) was measured for six minutes immediately after that, and the ratio of the average immobility time of each compound administration group with respect to the average immobility time of a control group (10 mL/kg administration of 0.5% methylcellulose aqueous solution without a compound) was calculated.
In the case of `COCCOc1cc(OC)c2c(c1Cl)O[C@]1(C2=O)C(OC)=CC(=O)C[C@H]1C` [Example 2, (2S,5′R)-7-chloro-3′,4-dimethoxy-6-(2-methoxyethoxy)-5′-methyl-spiro [benzofuran-2,4′-cyclohex-2-ene]-1′,3-dione], the response vs control in vivo at 10 mg/kg came to 71%.
For the compound `COC1=CC(=O)C[C@@H](C)[C@]12Oc1c(Cl)c(-c3ccn(C)n3)cc(OC)c1C2=O` [Example 3, (2S,5′R)-7-chloro-3′,4-dimethoxy-5′-methyl-6-(1-methylpyrazol-3-yl) spiro [benzofuran-2,4′-cyclohex-2-ene]-1′,3-dione], the response vs control in vivo at 10 mg/kg worked out at 84%.
Consider `CCn1ccc(-c2cc(OC)c3c(c2Cl)O[C@]2(C3=O)C(OC)=CC(=O)C[C@H]2C)n1` [Example 4, (2S,5′R)-7-chloro-6-(1-ethylpyrazol-3-yl)-3′,4-dimethoxy-5′-methyl-spiro [benzofuran-2,4′-cyclohex-2-ene]-1′,3-dione], for which the response vs control in vivo at 10 mg/kg was determined as 61%.
On the same count and under the same terms, to `COC1=CC(=O)C[C@@H](C)[C@]12Oc1c(Cl)c(-c3nnc(C)o3)cc(OC)c1C2=O` [Example 5, (2S,5′R)-7-chloro-3′,4-dimethoxy-5′-methyl-6-(5-methyl-1,3,4-oxadiazol-2-yl) spiro [benzofuran-2,4′-cyclohex-2-ene]-1′,3-dione] belongs 62%; to `COC1=CC(=O)C[C@@H](C)[C@]12Oc1c(Cl)c(-c3nc(C)no3)cc(OC)c1C2=O` [Example 6, (2S,5′R)-7-chloro-3′,4-dimethoxy-5′-methyl-6-(3-methyl-1,2,4-oxadiazol-5-yl) spiro [benzofuran-2,4′-cyclohex-2-ene]-1′,3-dione], 67%.
With `CCc1nnc(-c2cc(OC)c3c(c2Cl)O[C@]2(C3=O)C(OC)=CC(=O)C[C@H]2C)o1` [Example 17, (2S,5′R)-7-chloro-6-(5-ethyl-1,3,4-oxadiazol-2-yl)-3′,4-dimethoxy-5′-methyl-spiro [benzofuran-2,4′-cyclohex-2-ene]-1′,3-dione], the response vs control in vivo at 10 mg/kg was found to be 72%.
For `COC1=CC(=O)C[C@@H](C)[C@]12Oc1c(Cl)c(-c3nnc(C4CCOCC4)o3)cc(OC)c1C2=O` [Example 18, (2S,5′R)-7-chloro-3′,4-dimethoxy-5′-methyl-6-(5-tetrahydropyran-4-yl-1,3,4-oxadiazol-2-yl) spiro [benzofuran-2,4′-cyclohex-2-ene]-1′,3-dione], the response vs control in vivo at 10 mg/kg is 85%.
Same read-out and setting: to `COC1=CC(=O)C[C@@H](C)[C@]12Oc1c(Cl)c(-c3nnc([C@H](C)OC)o3)cc(OC)c1C2=O` [Example 21, (2S,5′R)-7-chloro-3′,4-dimethoxy-6-[5-[(1S)-1-methoxyethyl]-1,3,4-oxadiazol-2-yl]-5′-methyl-spiro [benzofuran-2,4′-cyclohex-2-ene]-1′,3-dione] belongs 87%.
With `CCOc1cc(-c2nnc(C)o2)c(Cl)c2c1C(=O)[C@@]1(O2)C(OC)=CC(=O)C[C@H]1C` [Example 22, (2S,5′R)-7-chloro-4-ethoxy-3′-methoxy-5′-methyl-6-(5-methyl-1,3,4-oxadiazol-2-yl) spiro [benzofuran-2,4′-cyclohex-2-ene]-1′,3-dione], the response vs control in vivo at 10 mg/kg stood at 88%.
Same read-out and setting: to `COC1=CC(=O)C[C@@H](C)[C@]12Oc1c(Cl)c(-c3nc(C(C)OC)no3)cc(OC)c1C2=O` (stereo partly drawn) [Example 24, (2S,5′R)-7-chloro-3′,4-dimethoxy-6-[3-(1-methoxyethyl)-1,2,4-oxadiazol-5-yl]-5′-methyl-spiro [benzofuran-2,4′-cyclohex-2-ene]-1′,3-dione] belongs 65%.
On the same count and under the same terms, under `COC1=CC(=O)C[C@@H](C)[C@]12Oc1c(Cl)c(-c3nc(C(C)(C)O)no3)cc(OC)c1C2=O` [Example 25, (2S,5′R)-7-chloro-6-[3-(1-hydroxy-1-methyl-ethyl)-1,2,4-oxadiazol-5-yl]-3′,4-dimethoxy-5′-methyl-spiro [benzofuran-2,4′-cyclohex-2-ene]-1′,3-dione] stands 58%; under `COC1=CC(=O)C[C@@H](C)[C@]12Oc1c(Cl)c(-c3ccn[nH]3)cc(OC)c1C2=O` [Example 26, (2S,5′R)-7-chloro-3′,4-dimethoxy-5′-methyl-6-(1H-pyrazol-5-yl) spiro [benzofuran-2,4′-cyclohex-2-ene]-1′,3-dione], 72%.
With `COC1=CC(=O)C[C@@H](C)[C@]12Oc1c(Cl)c(C3=NOC4(CCOCC4)C3)cc(OC)c1C2=O` [Example 28, (2S,5′R)-7-chloro-6-(1,8-dioxa-2-azaspiro [4.5]dec-2-en-3-yl)-3′,4-dimethoxy-5′-methyl-spiro [benzofuran-2,4′-cyclohex-2-ene]-1′,3-dione], the response vs control in vivo at 10 mg/kg was found to be 80%.
On the same count and under the same terms, to `COC1=CC(=O)C[C@@H](C)[C@]12Oc1c(Cl)c(-c3cnc(OC)nc3)cc(OC)c1C2=O` [Example 30, (2S,5′R)-7-chloro-3′,4-dimethoxy-6-(2-methoxypyrimidin-5-yl)-5′-methyl-spiro [benzofuran-2,4′-cyclohex-2-ene]-1′,3-dione] belongs 70%; to `COC1=CC(=O)C[C@@H](C)[C@]12Oc1c(Cl)c(-c3ccc(OC)nc3)cc(OC)c1C2=O` [Example 31, (2S,5′R)-7-chloro-3′,4-dimethoxy-6-(6-methoxy-3-pyridyl)-5′-methyl-spiro [benzofuran-2,4′-cyclohex-2-ene]-1′,3-dione], 68%.

Staying with this experiment, now noted: Mus musculus, oral, dose 100 mg/kg, 4 hours after administration, immobility time measured for six minutes, ratio to control group (0.5% methylcellulose).
Turning to `COC1=CC(=O)C[C@@H](C)[C@]12Oc1c(Cl)c(OC)cc(OC)c1C2=O` [Griseofulvin, (2S,5′R)-7-chloro-3′,4,6-trimethoxy-5′-methyl-spiro [benzofuran-2,4′-cyclohex-2-ene]-1′,3-dione], the response vs control in vivo at 100 mg/kg is 72%.
